Measurements reported in publication PMC6983109, “Efficient Synthesis of Purine Nucleoside Analogs by a New Trimeric Purine Nucleoside Phosphorylase from Aneurinibacillus migulanus AM007” (Molecules, 2019).

Assays:
AmPNP = target: T1, AmPNP (Aneurinibacillus migulanus, UniProt A0A3G5E8S8); assay: phosphorolysis, HPLC; assay type: biochemical; settings: 10 mM sodium phosphate buffer pH 8.0 (phosphate co-substrate), 50 °C, 0.5–5 mM substrate
T1 construct: full-length ORF 813 bp, 270 residues; N-terminal 6*His tag (pET-28a(+), Nhe I/BamH I), E. coli BL21(DE3), Ni2+ purified; subunit ~29 kDa, native ~87 kDa, trimer
Text: phosphorolysis, HPLC on AmPNP

[1] = target: purine nucleoside phosphorylase from Aneurinibacillus migulanus AM007 (Aneurinibacillus migulanus AM007); assay: SEC; Superdex 200 Increase 10/300 GL on an AKTA pure system, against standard proteins; 0.01 M phosphate buffer, 0.14 M NaCl, pH 8.0; AmPNP at 2 mg/mL; 0.3 mL/min; native mass about 87 kDa compared with about 29 kDa subunit on SDS-PAGE

| stoichiometry N [1] | Compound | Km (AmPNP) |
| --- | --- | --- |
|  | Nc1nc2c(ncn2[C@@H]2O[C@H](CO)[C@@H](O)[C@H]2O)c(=O)[nH]1 [Guanosine] | 1160 µM |
| 3 | purine nucleoside phosphorylase from Aneurinibacillus migulanus AM007 (enzyme) |  |
|  | OC[C@H]1O[C@@H](n2cnc3c(O)ncnc32)[C@H](O)[C@@H]1O [Inosine] | 5300 µM |
|  | Nc1ncnc2c1ncn2[C@@H]1O[C@H](CO)[C@@H](O)[C@H]1O [Adenosine] | 1450 µM |
